Among the data in US10183949B2, “Pyrimidinone derivative having autotaxin-inhibitory activity” (The University of Tokyo, priority 2014, dated 2019) are IC50 values, retold here.

For orientation: IC50 means the point on the concentration scale where inhibition reaches its midpoint.

Bounds are passed on as bounds.

This assay concerns the target T1, Human autotaxin enzyme (Homo sapiens, UniProt Q13822).
T1 construct: purchased R&D System
Kind of assay: Evaluation of autotaxin inhibitor, 18:0 Lyso PC / choline assay (Test Example 2). Format: biochemical. The conditions noted are these: human autotaxin enzyme, 18:0 Lyso PC substrate, choline assay, room temperature 2 hours; read-out: Inhibitor activity (IC50). In short, it runs like this: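 Human autotaxin in 100 mM Tris-HCl pH 7.5, 150 mM NaCl, 5 mM MgCl2, 0.05% Triton X-100 reacted with 18:0 Lyso PC (200 μM stock) and test compound 2 h at room temperature. Released choline quantified via choline oxidase/peroxidase resorufin fluorescence (ex 531/em 598 nm, 20 min); inhibition vs no-compound and no-enzyme controls, concentration-response curve.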
`O=C(c1cccc(Cn2c(CCCC(F)(F)F)nc(-c3ccc(Cl)cc3)cc2=O)c1)N1CCC(O)CC1` [Compound I-0158]: the IC50 was in the range of 10 to 100 nM. With `O=C(c1cccc(Cn2c(CCCC(F)(F)F)nc(-c3ccc(Cl)cc3)cc2=O)c1)N1CCC(CO)CC1` [Compound I-0159] the figure was below 10 nM; with `O=C(c1cccc(Cn2c(CCCC(F)(F)F)nc(-c3ccc(Cl)cc3)cc2=O)c1)N1CCOCC1` [Compound I-0160], 10 to 100 nM; with `COCCCNC(=O)c1cccc(Cn2c(CCCC(F)(F)F)nc(-c3ccc(Cl)cc3)cc2=O)c1` [Compound I-0161], 100 to 1000 nM. With `O=C(NCCOCCO)c1cccc(Cn2c(CCCC(F)(F)F)nc(-c3ccc(Cl)cc3)cc2=O)c1` [Compound I-0162] the figure was 100 to 1000 nM; with `O=C(NCCCO)c1cccc(Cn2c(CCCC(F)(F)F)nc(-c3ccc(Cl)cc3)cc2=O)c1` [Compound I-0163], 100 to 1000 nM. With `N#CCNC(=O)c1cccc(Cn2c(CCCC(F)(F)F)nc(-c3ccc(Cl)cc3)cc2=O)c1` [Compound I-0164] the figure was 100 to 1000 nM; with `O=C(NC(CO)CO)c1cccc(Cn2c(CCCC(F)(F)F)nc(-c3ccc(Cl)cc3)cc2=O)c1` [Compound I-0165], 100 to 1000 nM; with `C[C@@H]1CN(C(=O)c2cccc(Cn3c(CCCC(F)(F)F)nc(-c4ccc(Cl)cc4)cc3=O)c2)C[C@H](C)O1` [Compound I-0166], 100 to 1000 nM.

On to `O=C(NCC(O)c1ccccc1)c1cccc(Cn2c(CCCC(F)(F)F)nc(-c3ccc(Cl)cc3)cc2=O)c1` (stereo not shown) [Compound I-0167], for which the IC50 was in the range of 100 to 1000 nM.

For `NC(=O)CNC(=O)c1cccc(Cn2c(CCCC(F)(F)F)nc(-c3ccc(Cl)cc3)cc2=O)c1` [Compound I-0168], the IC50 fell in the range of 100 to 1000 nM. With `O=C(NCc1cnccn1)c1cccc(Cn2c(CCCC(F)(F)F)nc(-c3ccc(Cl)cc3)cc2=O)c1` [Compound I-0169] the figure was 100 to 1000 nM; with `O=C(NCc1cc(=O)[nH]o1)c1cccc(Cn2c(CCCC(F)(F)F)nc(-c3ccc(Cl)cc3)cc2=O)c1` [Compound I-0170], 10 to 100 nM. With `O=C(NCCN1CCNC1=O)c1cccc(Cn2c(CCCC(F)(F)F)nc(-c3ccc(Cl)cc3)cc2=O)c1` [Compound I-0171] the figure was 100 to 1000 nM; with `O=C(NCCO)c1cccc(Cn2c(CCCC(F)(F)F)nc(-c3ccc(Cl)cc3)cc2=O)c1` [Compound I-0172], 100 to 1000 nM; with `O=C(NCC(O)CO)c1cccc(Cn2c(CCCC(F)(F)F)nc(-c3ccc(Cl)cc3)cc2=O)c1` (stereo not shown) [Compound I-0173], 100 to 1000 nM.

Turning to `O=C(N[C@H]1CC[C@H](O)CC1)c1cccc(Cn2c(CCCC(F)(F)F)nc(-c3ccc(Cl)cc3)cc2=O)c1` [Compound I-0174], the IC50 was 100 to 1000 nM. Turning to `O=C(NCC1(CO)CC1)c1cccc(Cn2c(CCCC(F)(F)F)nc(-c3ccc(Cl)cc3)cc2=O)c1` [Compound I-0175], the IC50 was 100 to 1000 nM. Turning to `O=C(NCc1ccc(O)nc1)c1cccc(Cn2c(CCCC(F)(F)F)nc(-c3ccc(Cl)cc3)cc2=O)c1` [Compound I-0176], the IC50 was 100 to 1000 nM. With `CS(=O)(=O)CCNC(=O)c1cccc(Cn2c(CCCC(F)(F)F)nc(-c3ccc(Cl)cc3)cc2=O)c1` [Compound I-0177] the figure was 100 to 1000 nM; with `O=C(NC(CO)c1ccccc1)c1cccc(Cn2c(CCCC(F)(F)F)nc(-c3ccc(Cl)cc3)cc2=O)c1` (stereo not shown) [Compound I-0178], 100 to 1000 nM.

As for `O=C1CCN(C(=O)c2cccc(Cn3c(CCCC(F)(F)F)nc(-c4ccc(Cl)cc4)cc3=O)c2)CCN1` [Compound I-0179], the IC50 fell in the range of 10 to 100 nM. With `CNC(=O)c1cccc(Cn2c(CCCC(F)(F)F)nc(-c3ccc(Cl)cc3)cc2=O)c1` [Compound I-0180] the figure was 100 to 1000 nM; with `CN(C)C(=O)c1cccc(Cn2c(CCCC(F)(F)F)nc(-c3ccc(Cl)cc3)cc2=O)c1` [Compound I-0181], 10 to 100 nM. With `CNC(=O)CNC(=O)c1cccc(Cn2c(CCCC(F)(F)F)nc(-c3ccc(Cl)cc3)cc2=O)c1` [Compound I-0182] the figure was 100 to 1000 nM; with `CN(C)C(=O)CNC(=O)c1cccc(Cn2c(CCCC(F)(F)F)nc(-c3ccc(Cl)cc3)cc2=O)c1` [Compound I-0183], 10 to 100 nM. With `NC(=O)CCCNC(=O)c1cccc(Cn2c(CCCC(F)(F)F)nc(-c3ccc(Cl)cc3)cc2=O)c1` [Compound I-0184] the figure was 100 to 1000 nM; with `CC1(NC(=O)c2cccc(Cn3c(CCCC(F)(F)F)nc(-c4ccc(Cl)cc4)cc3=O)c2)COC1` [Compound I-0185], 100 to 1000 nM; with `NS(=O)(=O)CCNC(=O)c1cccc(Cn2c(CCCC(F)(F)F)nc(-c3ccc(Cl)cc3)cc2=O)c1` [Compound I-0186], 100 to 1000 nM. On to `CC(C)(O)CNC(=O)c1cccc(Cn2c(CCCC(F)(F)F)nc(-c3ccc(Cl)cc3)cc2=O)c1` [Compound I-0187], for which the IC50 lay in the range of 100 to 1000 nM. For `O=C(NC(CO)(CO)CO)c1cccc(Cn2c(CCCC(F)(F)F)nc(-c3ccc(Cl)cc3)cc2=O)c1` [Compound I-0188], the IC50 is 100 to 1000 nM.

As for `Cc1nc(CNC(=O)c2cccc(Cn3c(CCCC(F)(F)F)nc(-c4ccc(Cl)cc4)cc3=O)c2)no1` [Compound I-0189], the IC50 fell in the range of 100 to 1000 nM. Consider `Cc1nonc1CNC(=O)c1cccc(Cn2c(CCCC(F)(F)F)nc(-c3ccc(Cl)cc3)cc2=O)c1` [Compound I-0190], for which the IC50 was 100 to 1000 nM. As for `CN(CC(N)=O)C(=O)c1cccc(Cn2c(CCCC(F)(F)F)nc(-c3ccc(Cl)cc3)cc2=O)c1` [Compound I-0191], the IC50 lay within 100 to 1000 nM.

For `O=C(NCc1ccnc(O)c1)c1cccc(Cn2c(CCCC(F)(F)F)nc(-c3ccc(Cl)cc3)cc2=O)c1` [Compound I-0192], the IC50 lay within 10 to 100 nM. In the case of `O=C(NCc1cccnc1O)c1cccc(Cn2c(CCCC(F)(F)F)nc(-c3ccc(Cl)cc3)cc2=O)c1` [Compound I-0193], the IC50 lay within 100 to 1000 nM.

On to `O=C(NCC1(CO)COC1)c1cccc(Cn2c(CCCC(F)(F)F)nc(-c3ccc(Cl)cc3)cc2=O)c1` [Compound I-0194], for which the IC50 was 100 to 1000 nM. With `O=C(c1cccc(Cn2c(CCCC(F)(F)F)nc(-c3ccc(Cl)cc3)cc2=O)c1)N1CCC2(COC2)C1` [Compound I-0195] the figure was below 10 nM.

On to `O=C1CCC(CNC(=O)c2cccc(Cn3c(CCCC(F)(F)F)nc(-c4ccc(Cl)cc4)cc3=O)c2)CN1` (stereo not shown) [Compound I-0196], for which the IC50 fell in the range of 10 to 100 nM.

In the case of `O=C(c1cccc(Cn2c(CCCC(F)(F)F)nc(-c3ccc(Cl)cc3)cc2=O)c1)N(CCO)CCO` [Compound I-0197], the IC50 lay within 100 to 1000 nM. With `O=C(c1cccc(Cn2c(CCCC(F)(F)F)nc(-c3ccc(Cl)cc3)cc2=O)c1)N(CCO)Cc1ccccc1` [Compound I-0198] the figure was 100 to 1000 nM; with `C[C@@H]1COC[C@H](C)N1C(=O)c1cccc(Cn2c(CCCC(F)(F)F)nc(-c3ccc(Cl)cc3)cc2=O)c1` [Compound I-0199], 10 to 100 nM. As for `CCCNc1nc(-c2ccc(Cl)cc2NC(C)=O)cc(=O)n1Cc1ccccc1` [Compound I-0202], the IC50 lay in the range of 100 to 1000 nM.

For the compound `CCCOCc1nc(-c2ccc(Cl)cc2)cc(=O)n1CC(=O)NC1(C#N)CC1` [Compound I-0203], the IC50 lay within 100 to 1000 nM.

Turning to `CCCOCc1nc(-c2ccc(Cl)cc2)cc(=O)n1CC(=O)NC1(CO)CC1` [Compound I-0204], the IC50 was in the range of 100 to 1000 nM.

With `CCCCCc1nc(-c2ccc(Cl)cc2NC(C)=O)cc(=O)n1CC(=O)NC1(C#N)CC1` [Compound I-0205], the IC50 lay within 10 to 100 nM.
